In US10584117B2, “1,3,4-oxadiazole amide derivative compound as histone deacetylase 6 inhibitor, and pharmaceutical composition containing same” (Chong Kun Dang Pharmaceutical Corp., priority 2015, dated 2020):

Target: T1, human recombinant HDAC6 (Homo sapiens, UniProt Q9UBN7)
T1 construct: purchased Calbiochem 382180
T1 sequence (Q9UBN7 1-1215): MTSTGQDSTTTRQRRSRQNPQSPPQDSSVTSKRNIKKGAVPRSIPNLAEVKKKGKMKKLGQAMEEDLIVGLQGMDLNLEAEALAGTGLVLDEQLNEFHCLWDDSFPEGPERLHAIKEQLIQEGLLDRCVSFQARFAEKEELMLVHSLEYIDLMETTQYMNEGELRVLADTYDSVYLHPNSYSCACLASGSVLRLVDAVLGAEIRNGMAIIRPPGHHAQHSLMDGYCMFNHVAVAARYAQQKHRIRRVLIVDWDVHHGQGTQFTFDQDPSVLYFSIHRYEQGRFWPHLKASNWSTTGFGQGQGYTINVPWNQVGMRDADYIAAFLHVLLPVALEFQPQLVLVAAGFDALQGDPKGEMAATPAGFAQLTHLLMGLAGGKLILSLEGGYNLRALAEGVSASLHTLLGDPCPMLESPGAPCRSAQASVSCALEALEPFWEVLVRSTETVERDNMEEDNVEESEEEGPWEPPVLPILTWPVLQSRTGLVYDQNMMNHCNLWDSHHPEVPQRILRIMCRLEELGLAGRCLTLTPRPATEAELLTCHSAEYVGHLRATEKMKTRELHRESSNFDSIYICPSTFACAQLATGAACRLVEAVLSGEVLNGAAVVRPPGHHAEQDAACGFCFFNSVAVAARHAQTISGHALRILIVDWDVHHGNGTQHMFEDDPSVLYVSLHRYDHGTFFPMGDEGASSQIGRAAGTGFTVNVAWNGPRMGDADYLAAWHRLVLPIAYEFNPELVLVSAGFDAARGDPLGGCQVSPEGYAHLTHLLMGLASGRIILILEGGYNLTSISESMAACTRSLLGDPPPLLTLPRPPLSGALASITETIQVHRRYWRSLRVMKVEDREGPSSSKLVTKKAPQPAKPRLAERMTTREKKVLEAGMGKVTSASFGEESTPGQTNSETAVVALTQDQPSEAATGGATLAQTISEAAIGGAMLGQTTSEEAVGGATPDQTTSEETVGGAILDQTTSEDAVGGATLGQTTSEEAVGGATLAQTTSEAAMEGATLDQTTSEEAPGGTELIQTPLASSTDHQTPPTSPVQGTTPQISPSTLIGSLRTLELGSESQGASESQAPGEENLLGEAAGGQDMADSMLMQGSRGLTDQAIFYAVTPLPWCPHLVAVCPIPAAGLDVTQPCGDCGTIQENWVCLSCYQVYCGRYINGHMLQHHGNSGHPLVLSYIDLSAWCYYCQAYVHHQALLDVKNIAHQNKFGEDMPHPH
Assay: HDAC enzyme activity inhibition assay (HDAC6, fluorimetric kit)
Format: biochemical
Settings: for HDAC6 selectivity (fold): HDAC6 versus HDAC1; for IC50: same protocol as the HDAC1 test
How it was run: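 Fluorimetric kit assay: human recombinant HDAC1 or HDAC6 (0.3 μg) reacted with 10 μM Fluor de Lys-SIRT1 substrate and 5-fold serially diluted compound for 60 minutes at 30° C, followed by 30 minutes of developer. Fluorescence was read at Ex 360/Em 460, and IC50 values were calculated from it.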

| Compound | HDAC6 selectivity (fold) | IC50 [nM] |
| --- | --- | --- |
| CCN1CCC(C(=O)N(Cc2ccc(-c3nnc(C(F)F)o3)cc2F)c2ccccc2)CC1 [Compound 11209, N-(4-(5-(difluoromethyl)-1,3,4-oxadiazol-2-yl)-2-fluorobenzyl)-1-ethyl-N-phenylpiperidine-4-carboxamide] | 1031 | 97 |
| CC(C)(C)OC(=O)N1CCC(C(=O)N(Cc2ccc(-c3nnc(C(F)(F)F)o3)cc2)c2ccccc2)CC1 [Compound 11135, tert-butyl 4-(phenyl(4-(5-(trifluoromethyl)-1,3,4-oxadiazol-2-yl)benzyl)carbamoyl)piperidine-1-carboxylate] | 36 | 2750 |
| CS(=O)(=O)N1CC(C(=O)N(Cc2ccc(-c3nnc(C(F)(F)F)o3)cc2)c2ccccc2)C1 [Compound 11160, 1-(methylsulfonyl)-N-phenyl-N-(4-(5-(trifluoromethyl)-1,3,4-oxadiazol-2-yl)benzyl)azetidine-3-carboxamide] | 606 | 165 |
| O=C(CN1CCC[C@@H]1CO)N(Cc1ccc(-c2nnc(C(F)F)o2)cc1F)c1ccc(F)c(Cl)c1 [Compound 11537, (R)-N-(3-chloro-4-fluorophenyl)-N-(4-(5-(difluoromethyl)-1,3,4-oxadiazol-2-yl)-2-fluorobenzyl)-2-(2-(hydroxymethyl)pyrrolidin-1-yl)acetamide] | 1429 | 70 |
| CC(C)N1CCC(C(=O)N(Cc2ccc(-c3nnc(C(F)F)o3)cc2F)c2ccccc2)CC1 [Compound 11210, N-(4-(5-(difluoromethyl)-1,3,4-oxadiazol-2-yl)-2-fluorobenzyl)-1-isopropyl-N-phenylpiperidine-4-carboxamide] | 418 | 239 |
| CN1CC(C(=O)N(Cc2ccc(-c3nnc(C(F)F)o3)cc2F)c2cccc(F)c2)C1 [Compound 11325, N-(4-(5-(difluoromethyl)-1,3,4-oxadiazol-2-yl)-2-fluorobenzyl)-N-(3-fluorophenyl)-1-methylazetidine-3-carboxamide] | 1111 | 90 |
| O=C(C1CCCCC1)N(Cc1ccc(-c2nnc(C(F)(F)F)o2)cc1)c1ccccc1 [Compound 11106, N-phenyl-N-(4-(5-(trifluoromethyl)-1,3,4-oxadiazol-2-yl)benzyl)cyclohexanecarboxamide] | 77 | 1300 |
| O=C(c1ccncc1)N(Cc1ccc(-c2nnc(C(F)(F)F)o2)cn1)c1cccc(F)c1 [Compound 11359, N-(3-fluorophenyl)-N-((5-(5-(trifluoromethyl)-1,3,4-oxadiazol-2-yl)pyridin-2-yl)methyl)isonicotinamide] | 2941 | 34 |
| NC(=O)[C@@H]1CCCN1CC(=O)N(Cc1ccc(-c2nnc(C(F)F)o2)cc1F)c1ccc(F)c(Cl)c1 [Compound 11538, (S)-1-(2-((3-chloro-4-fluorophenyl) (4-(5-(difluoromethyl)-1,3,4-oxadiazol-2-yl)-2-fluorobenzyl)amino)-2-oxoethyl)pyrrolidine-2-carboxamide] | 1587 | 63 |
| Cl.O=C(C1CCNCC1)N(Cc1ccc(-c2nnc(C(F)(F)F)o2)cc1)c1ccccc1 [Compound 11137, N-phenyl-N-(4-(5-(trifluoromethyl)-1,3,4-oxadiazol-2-yl)benzyl)piperidine-4-carboxamide hydrochloride] | 275 | 364 |
| CC(C)(C)OC(=O)N1CC(C(=O)N(Cc2ccc(-c3nnc(C(F)(F)F)o3)cc2)c2ccccc2)C1 [Compound 11134, tert-butyl 3-(phenyl(4-(5-(trifluoromethyl)-1,3,4-oxadiazol-2-yl)benzyl)carbamoyl)azetidine-1-carboxylate] | 109 | 914 |

More lines, now with the values ahead:

| HDAC6 selectivity (fold) | IC50 [nM] | Compound |
| --- | --- | --- |
| 427 | 234 | O=C(c1ccncc1)N(Cc1ccc(-c2nnc(C(F)(F)F)o2)cc1)c1ccccc1 [Compound 11022, N-phenyl-N-(4-(5-(trifluoromethyl)-1,3,4-oxadiazol-2-yl)benzyl)isonicotinamide] |
| 263 | 380 | O=C(C1CCS(=O)(=O)CC1)N(Cc1ccc(-c2nnc(C(F)(F)F)o2)cc1F)c1ccc(F)c(Cl)c1 [Compound 11602, N-(3-chloro-4-fluorophenyl)-N-(2-fluoro-4-(5-(trifluoromethyl)-1,3,4-oxadiazol-2-yl)benzyl)tetrahydro-2H-thiopyran-4-carboxamide 1,1-dioxide] |
| 1136 | 88 | CN1CCC(C(=O)N(Cc2ccc(-c3nnc(C(F)F)o3)cc2F)c2ccccc2)CC1 [Compound 11208, N-(4-(5-(difluoromethyl)-1,3,4-oxadiazol-2-yl)-2-fluorobenzyl)-1-methyl-N-phenylpiperidine-4-carboxamide] |
| 1351 | 74 | CC(=O)N1CCC(C(=O)N(Cc2ccc(-c3nnc(C(F)F)o3)cc2F)c2ccccc2)CC1 [Compound 11211, 1-acetyl-N-(4-(5-(difluoromethyl)-1,3,4-oxadiazol-2-yl)-2-fluorobenzyl)-N-phenylpiperidine-4-carboxamide] |
| 735 | 136 | CC(C)N1CCC(C(=O)N(Cc2ccc(-c3nnc(C(F)(F)F)o3)cc2F)c2ccccc2)CC1 [Compound 11202, N-(2-fluoro-4-(5-(trifluoromethyl)-1,3,4-oxadiazol-2-yl)benzyl)-1-isopropyl-N-phenylpiperidine-4-carboxamide] |
| 269 | 372 | O=C(C1CCN(C(=O)C(F)(F)F)CC1)N(Cc1ccc(-c2nnc(C(F)(F)F)o2)cc1F)c1ccccc1 [Compound 11206, N-(2-fluoro-4-(5-(trifluoromethyl)-1,3,4-oxadiazol-2-yl)benzyl)-N-phenyl-1-(2,2,2-trifluoroacetyl)piperidine-4-carboxamide] |
| 2703 | 37 | CCN1CC(C(=O)N(Cc2ccc(-c3nnc(C(F)(F)F)o3)cc2F)c2ccccc2)C1 [Compound 11233, 1-ethyl-N-(2-fluoro-4-(5-(trifluoromethyl)-1,3,4-oxadiazol-2-yl)benzyl)-N-phenylazetidine-3-carboxamide] |
| 1961 | 51 | CC(=O)N1CC(C(=O)N(Cc2ccc(-c3nnc(C(F)F)o3)cc2F)c2cccc(F)c2)C1 [Compound 11330, 1-acetyl-N-(4-(5-(difluoromethyl)-1,3,4-oxadiazol-2-yl)-2-fluorobenzyl)-N-(3-fluorophenyl)azetidine-3-carboxamide] |
| 2632 | 38 | CCS(=O)(=O)N1CC(C(=O)N(Cc2ccc(-c3nnc(C(F)F)o3)cc2F)c2cccc(F)c2)C1 [Compound 11334, N-(4-(5-(difluoromethyl)-1,3,4-oxadiazol-2-yl)-2-fluorobenzyl)-1-(ethylsulfonyl)-N-(3-fluorophenyl)azetidine-3-carboxamide] |
